This series in a line: Stability of iodine-containing X-ray contrast medium against radiation (iodine-starch reaction). The class given is physicochemical. Particulars: about 40 mg in 40 ml 0.1% starch solution. As to the method: Approximately 40 mg 2,3,5-triiodobenzoic acid (TIB) or another X-ray contrast medium that can be obtained commercially (diatrizoic acid or iotalamic acid etc.) is dissolved in 40 ml of a 0.1% starch solution while gently heating. 20 ml is in each case distributed to two Petri dishes (diameter 11.5 cm). Dish 1 is placed in full sunlight for 1 hour. Dish 2 is irradiated at a distance of 11 cm with a UV hand-held lamp (254 nm, 14 μW/cm^2).
This is even more significant because the energy of the UV irradiation (like the intensity of the irradiation source used) is approximately 100-fold lower than that of the X-ray irradiation of a computer tomograph.

Molecules are shown by their SMILES.

In the case of `O=C(O)c1cc(I)cc(I)c1I` [2,3,5-triiodobenzoic acid], the “colour of the solution (iodine-starch reaction) after exposure to daylight” value (dish 1, full sunlight for 1 hour) was “still colourless”. Further, the “colour of the solution (iodine-starch reaction) after UV irradiation” value (dish 2, UV hand-held lamp 254 nm, 14 μW/cm^2, distance 11 cm) is given as “typical, intensive blue staining of the iodine-starch reaction”.

Values taken from US20090047218A1, “Method for producing albumin conjugates comprising an X-ray contrast medium as the active substance” (Albupharm Heidelberg GmbH & Co. KG, priority 2005, published 2009).
